Target: T1, human APJ receptor (Homo sapiens, UniProt P35414)
T1 construct: expressed in transfected cells; host or cells: HEK293
T1 sequence (P35414 1-380): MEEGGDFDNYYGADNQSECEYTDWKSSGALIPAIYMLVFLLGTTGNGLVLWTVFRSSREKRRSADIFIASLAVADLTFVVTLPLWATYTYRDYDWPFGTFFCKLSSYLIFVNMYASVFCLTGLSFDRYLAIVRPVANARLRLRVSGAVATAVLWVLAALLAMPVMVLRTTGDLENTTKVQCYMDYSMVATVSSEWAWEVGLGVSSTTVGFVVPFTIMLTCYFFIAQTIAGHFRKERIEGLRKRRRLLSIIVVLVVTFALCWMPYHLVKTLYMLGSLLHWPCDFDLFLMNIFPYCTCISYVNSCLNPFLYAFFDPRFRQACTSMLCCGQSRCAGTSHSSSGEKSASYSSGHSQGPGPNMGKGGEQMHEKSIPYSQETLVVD
Assay: Intracellular cAMP Accumulation Assay (APJ hcAMP, HTRF)
Assay type: cell-based
Settings: not given
Method in brief: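 Stably transfected HEK293 cells (5,000/well) incubated 30 min at room temperature with serially diluted compound, […] and 2 μM forskolin. cAMP measured by HTRF after 60 min with detection reagents, quantified against a cAMP standard curve; EC50 from variable-slope sigmoidal fit of inhibition of forskolin-stimulated cAMP.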

| EC50 [nM] | SMILES |
| --- | --- |
| 0.01 to 10 | C=CCCc1nc(=O)c(C(=O)N2CC[C@H](c3ccccc3)C2)c(O)n1-c1c(OC)cccc1OC [Example 27, (R)-2-(but-3-en-1-yl)-3-(2,6-dimethoxyphenyl)-6-hydroxy-5-(3-phenylpyrrolidine-1-carbonyl)pyrimidin-4(3H)-one] |
| 0.01 to 10 | CCCCc1nc(O)c(C(=O)N2CC[C@@H](c3ccccc3)C2)c(=O)n1-c1c(CC)cccc1CC [Example 86, 2-butyl-3-(2,6-diethylphenyl)-6-hydroxy-5-[(3S)-3-phenylpyrrolidine-1-carbonyl]-3,4-dihydropyrimidin-4-one] |

Same assay, conditions: human APJ, cAMP accumulation; potency range class; read-out: hAPJ cAMP EC50 Potency range

| EC50 [nM] | SMILES |
| --- | --- |
| 0.01 to 10 | CCCCc1nc(=O)c(C(=O)N2CCC(c3ccccc3C#N)C2)c(O)n1-c1c(OC)cccc1OC (single isomer, unassigned) [Example 365, 2-(1-(2-butyl-1-(2,6-dimethoxyphenyl)-6-hydroxy-4-oxo-1,4-dihydropyrimidine-5-carbonyl)pyrrolidin-3-yl)benzonitrile] |
| 0.01 to 10 | COc1cccc(OC)c1-n1c(-c2cncc(Cl)c2)nc(=O)c(C(=O)N2CCC(c3ccccc3C#N)C2)c1O (single isomer, unassigned) [Example 243, 2-{1-[2-(5-chloropyridin-3-yl)-1-(2,6-dimethoxyphenyl)-6-hydroxy-4-oxo-1,4-dihydropyrimidine-5-carbonyl]pyrrolidin-3-yl}benzonitrile] |
| 0.01 to 10 | CCCCc1nc(=O)c(C(=O)N2CCC(c3ncccc3F)C2)c(O)n1-c1c(OC)cccc1OC (single isomer, unassigned) [Example 366, 2-butyl-1-(2,6-dimethoxyphenyl)-5-(3-(3-fluoropyridin-2-yl)pyrrolidine-1-carbonyl)-6-hydroxypyrimidin-4(1H)-one] |
| 10 to 100 | COc1cccc(OC)c1-n1c(Cc2ccc(F)cc2)nc(=O)c(C(=O)N2CCC(c3ccccc3F)C2)c1O (single isomer, unassigned) [Example 231, 1-(2,6-dimethoxyphenyl)-2-[(4-fluorophenyl)methyl]-5-[3-(2-fluorophenyl)pyrrolidine-1-carbonyl]-6-hydroxy-1,4-dihydropyrimidin-4-one] |
| 0.01 to 10 | COc1cccc(OC)c1-n1c(-c2cnn(C)c2)nc(=O)c(C(=O)N2CCC(c3c(F)cccc3F)C2)c1O (single isomer, unassigned) [Example 249, 5-[3-(2,6-difluorophenyl)pyrrolidine-1-carbonyl]-1-(2,6-dimethoxyphenyl)-6-hydroxy-2-(1-methyl-1H-pyrazol-4-yl)-1,4-dihydropyrimidin-4-one] |
| 10 to 100 | COc1cccc(OC)c1-n1c(CC2CC2)nc(=O)c(C(=O)N2CCC(c3ccncc3)C2)c1O (single isomer, unassigned) [Example 230, 2-(cyclopropylmethyl)-1-(2,6-dimethoxyphenyl)-6-hydroxy-5-[3-(pyridin-4-yl)pyrrolidine-1-carbonyl]-1,4-dihydropyrimidin-4-one] |
| 0.01 to 10 | CCc1cccc(CC)c1-n1c(-c2ccn(C3CC3)n2)nc(=O)c(C(=O)N2CCC(c3ncccc3F)C2)c1O (single isomer, unassigned) [Example 319, 2-(1-cyclopropyl-1H-pyrazol-3-yl)-1-(2,6-diethylphenyl)-5[3(3-fluoropyridin-2-yl)pyrrolidine-1-carbonyl]-6-hydroxy-1,4-dihydropyrimidin-4-one] |
| 0.01 to 10 | CCOCc1nc(=O)c(C(=O)N2CCC(c3c(F)cccc3F)C2)c(O)n1-c1c(OC)cccc1OC (single isomer, unassigned) [Example 354, 5-[3-(2,6-difluorophenyl)pyrrolidine-1-carbonyl]-1-(2,6-dimethoxyphenyl)-2-(ethoxymethyl)-6-hydroxy-1,4-dihydropyrimidin-4-one] |
| 0.01 to 10 | COc1ccccc1C1CCN(C(=O)c2c(O)n(-c3c(OC)cccc3OC)c(-c3cncc(C)c3)nc2=O)C1 (single isomer, unassigned) [Example 234, 1-(2,6-dimethoxyphenyl)-6-hydroxy-5-[3-(2-methoxyphenyl)pyrrolidine-1-carbonyl]-2-(5-methylpyridin-3-yl)-1,4-dihydropyrimidin-4-one] |
| 0.01 to 10 | COc1cccc(OC)c1-n1c(-c2cccc(Cl)c2)nc(=O)c(C(=O)N2CCC(c3ccccc3C#N)C2)c1O (single isomer, unassigned) [Example 237, 2-{1-[2-(3-chlorophenyl)-1-(2,6-dimethoxyphenyl)-6-hydroxy-4-oxo-1,4-dihydropyrimidine-5-carbonyl]pyrrolidin-3-yl}benzonitrile] |
| 0.01 to 10 | CC[C@@H](c1ccccc1)n1c(-c2nc(C)cs2)nc(=O)c(C(=O)N2CCC(c3ccccc3F)C2)c1O (single isomer, unassigned) [Example 324] |

Same assay, conditions: human APJ, intracellular cAMP accumulation; read-out: hAPJ cAMP EC50 Potency range

| EC50 [nM] | SMILES |
| --- | --- |
| 0.01 to 10 | CC[C@@H](c1cc(F)cc(F)c1)n1c(-c2nc(C)cs2)nc(=O)c(C(=O)N2CCC(c3ccc(F)cc3)C2)c1O (single isomer, unassigned) [Example 211] |
| 10 to 100 | CCCCc1nc(=O)c(C(=O)N2CC[C@@H](NC(=O)OCc3ccccc3)C2)c(O)n1-c1c(OC)cccc1OC [Example 62, benzyl N-[(3R)-1-[2-butyl-1-(2,6-dimethoxyphenyl)-6-hydroxy-4-oxo-1,4-dihydropyrimidine-5-carbonyl]pyrro1idin-3-yl]carbamate] |
| 0.01 to 10 | CCCCc1nc(=O)c(C(=O)N2CC[C@H](c3ccccc3)C2)c(O)n1[C@@H](C)C1CC1 [Example 126, 2-butyl-3-[(1S)-1-cyclopropylethyl]-6-hydroxy-5-[(3R)-3-phenylpyrrolidine-1-carbonyl]-3,4-dihydropyrimidin-4-one] |
| 0.01 to 10 | CCCCc1nc(=O)c(C(=O)N2CCC(c3cccc(F)c3)C2)c(O)n1[C@@H](CC)c1ccccc1 (single isomer, unassigned) [Example 119] |
| 0.01 to 10 | CC[C@@H](c1cc(F)cc(F)c1)n1c(-c2nc(C)cs2)nc(=O)c(C(=O)N2CCC(c3ccc(F)cn3)C2)c1O (single isomer, unassigned) [Example 206] |
| 0.01 to 10 | CCOCc1nc(=O)c(C(=O)N2CCC(c3ccccn3)C2)c(O)n1-c1c(OC)cccc1OC (single isomer, unassigned) [Example 54, 1-(2,6-dimethoxyphenyl)-2-(ethoxymethyl)-6-hydroxy-5-[3-(pyridin-2-yl)pyrrolidine-1-carbonyl]-1,4-dihydropyrimidin-4-one] |
| 10 to 100 | COc1cccc(OC)c1-n1c(COC(C)C)nc(=O)c(C(=O)N2CC(c3ccccc3)C2)c1O [Example 110, 1-(2,6-dimethoxyphenyl)-6-hydroxy-5-(3-phenylazetidine-1-carbonyl)-2-[(propan-2-yloxy)methyl]-1,4-dihydropyrimidin-4-one] |
| 0.01 to 10 | CC[C@@H](c1cc(F)cc(F)c1)n1c(-c2cnn(C)c2)nc(=O)c(C(=O)N2CCC(c3cc(F)ccn3)C2)c1O (single isomer, unassigned) [Example 203] |
| 0.01 to 10 | CCCCc1nc(=O)c(C(=O)N2CCC(c3cccc(F)c3)C2)c(O)n1-c1c(OC)cccc1OC (single isomer, unassigned) [Example 78, 2-butyl-1-(2,6-dimethoxyphenyl)-5-[3-(3-fluorophenyl)pyrrolidine-1-carbonyl]-6-hydroxy-1,4-dihydropyrimidin-4-one] |
| 100 to 300 | CCCCc1nc(=O)c(C(=O)N2CC[C@H](c3ccccc3)C2)c(O)n1[C@@H](C)c1ccccc1OC [Example 156, 2-butyl-6-hydroxy-3-[(1S)-1-(2-methoxyphenyl)ethyl]-5-[(3R)-3-phenylpyrrolidine-1-carbonyl]-3,4-dihydropyrimidin-4-one] |
| 0.01 to 10 | COc1cccc(OC)c1-n1c(CCC(C)C)nc(=O)c(C(=O)N2CC[C@@H](c3ccccc3)C2)c1O [Example 24, (S)-1-(2,6-dimethoxyphenyl)-6-hydroxy-2-isopentyl-5-(3-phenylpyrrolidine-1-carbonyl)pyrimidin-4(1H)-one] |
| 0.01 to 10 | CCCCc1nc(=O)c(C(=O)N2CC(c3cccc(Cl)c3)C2)c(O)n1-c1c(OC)cccc1OC [Example 88, 2-butyl-5-[3-(3-chlorophenyl)azetidine-1-carbonyl]-3-(2,6-dimethoxyphenyl)-6-hydroxy-3,4-dihydropyrimidin-4-one] |
| 0.01 to 10 | COc1cccc(OC)c1-n1c(COC(C)C)nc(=O)c(C(=O)N2CCC(c3ccccc3C(F)(F)F)C2)c1O (single isomer, unassigned) [Example 99, 1-(2,6-dimethoxyphenyl)-6-hydroxy-2-[(propan-2-yloxy)methyl]-5-{3-[2-(trifluoromethyl)phenyl]pyrrolidine-l-carbonyl}-1,4-dihydropyrimidin-4-one] |
| 0.01 to 10 | COc1cccc(OC)c1-n1c(COC(C)C)nc(=O)c(C(=O)N2CCC(c3ccccc3C)C2)c1O (single isomer, unassigned) [Example 98, 1-(2,6-dimethoxyphenyl)-6-hydroxy-5-[3-(2-methylphenyl)pyrrolidine-1-carbonyl]-2-[(propan-2-yloxy)methyl]-1,4-dihydropyrimidin-4-one] |

Same assay, conditions: read-out: hAPJ cAMP EC50 Potency range; human APJ, intracellular cAMP accumulation

| EC50 [nM] | SMILES |
| --- | --- |
| 0.01 to 10 | CCCCc1nc(=O)c(C(=O)N2CCC(c3ccc(Cl)cc3)C2)c(O)n1-c1c(OC)cccc1OC (single isomer, unassigned) [Example 45, 2-butyl-5-[3-(4-chlorophenyl)pyrrolidine-1-carbonyl]-1-(2,6-dimethoxyphenyl)-6-hydroxy-1,4-dihydropyrimidin-4-one] |
